Data set [1] has as its system Vibrio fischeri. Kind of data set: Acute toxicity of gaseous VOCs to hydrogel-microsphere-fixed Vibrio fischeri in exposure chamber (luminescence change). Type of data set: cell-based. The following applies: for IC50: Aliivibrio fischeri; for minimum detection limit: no pre-concentration; for IC50 (15 min) Ratio: liquid IC50 / gaseous IC50, 15 min; for IC50 (30 min) Ratio: liquid IC50 / gaseous IC50, 30 min; for IC50 (45 min) Ratio: liquid IC50 / gaseous IC50, 45 min; for IC50 (60 min) Ratio: liquid IC50 / gaseous IC50, 60 min. As for the experimental part: A method for using the exposure device for exposing microorganisms to gaseous pollutants provided in the present application includes steps as follows: • (1) preparing the hydrogel microspheres with microorganisms: culturing microorganisms in a culture medium dissolved with 1.5% of sodium alginate for 3 h to 4 h, and after OD600 is greater than 0.1, uniformly dripping the microorganisms into a 1.5% calcium chloride solution through a peristaltic pump at a rate of 1.5 ml/min to obtain the hydrogel microspheres with microorganisms; taking out and placing the hydrogel microspheres in a culture medium for use; • (2) sequentially loading the hydrogel microspheres fixed with microorganisms in the multi-well exposure tray according to a detection requirement, and detecting an initial intensity of fluorescent signals of the hydrogel microspheres fixed with microorganisms; • (3) fixing the multi-well exposure tray to a lower end of the vertical pipe of the T-shaped air flow-mixing pipe through threads, and connecting the pressurizing air outlet pipe to the T-shaped air flow-mixing pipe, wherein silicone seal gaskets are mounted at all threaded connections to ensure leakproofness of the exposure device; • (4) placing the exposure device in an in-situ multi-toxicity endpoint detection system for VOCs or an in-situ multi-toxicity endpoint detection system for atmospheric particulate matter to make the gaseous pollutants enter the exposure device through the first and second depressurizing air inlet pipes at a flow rate ranging from 0.3 L/min to 2.0 L/min; and • (5) continuously introducing the gaseous pollutants for 15 min to 60 min, and then introducing clean air for 8 min to 10 min to completely replace the gaseous pollutants in the detection system; removing the multi-well exposure tray, and sequentially placing the hydrogel microspheres in the multi-well exposure tray into a 96 well plate, and detecting a final intensity of fluorescent signals of the hydrogel microspheres fixed with microorganisms in the plurality of channels by using a microplate reader to obtain an intensity change of fluorescent signals.
A commercial VOCs generator is used to accurately generate seven different VOCs with nine gradient concentrations, involving aldehydes (formaldehyde and acetaldehyde), pyridines (pyridine), alcohols (n-butyl alcohol), acyls and ketones (acetylacetone), benzenes, and phenols (phenol). Natural luminescent bacteria Vibrio fischeri as a target, is fixed by using hydrogel microspheres, and is arranged in an exposure chamber. VOCs are sequentially introduced into the exposure chamber at a flow rate of 0.5 L/min. After exposure for 15 min, 30 min, 45 min, and 60 min, Vibrio fischeri is taken out, and intensity change of fluorescent signals of Vibrio fischeri are measured by using a microplate reader. Concentration-acute toxicity curves of the gaseous pollutant comprising different VOCs and mixed VOCs are fitted by using analysis software, to obtain the IC50 value of acute toxicity of the gaseous pollutants.

For data set [2], the system named is Vibrio fischeri. Kind of data set: Acute toxicity exposure experiments of VOCs in a liquid state (conventional method). Type of data set: cell-based. The following applies: for IC50: Aliivibrio fischeri.
In data set [3] the test system is Vibrio fischeri. The following applies: concentration ratio 10 times.
From the text: (1) According to a detection requirement in this embodiment, the quantity of the multi-well exposure tray that need to be loaded is 1, and only one type of the hydrogel microspheres fixed with natural fluorescent microorganisms Vibrio fischeri is provided, and the quantity of hydrogel microspheres fixed with microorganisms that need to be used is 60. An initial fluorescence intensity of each hydrogel microsphere is detected and recorded, and the hydrogel microspheres are placed in the multi-well exposure tray, the multi-well exposure tray is loaded into the exposure device, and the detection system is sealed. […]
(4) The system-controlled vacuum pump at the distal end of the detection system and the vacuum pump of the gas circulation device are turned on, and the concentrated VOCs is introduced into the exposure device at 0.5 L/min, wherein exposure is set to last 15 min, 30 min, 45 min, and 60 min; and stability of the flowmeter of the gas circulation device and the system-controlled flowmeter at the distal end of the detection system during the process is monitored.
(5) After exposure to VOCs is completed, a microplate reader is used to measure final fluorescence intensity of each hydrogel microsphere, and changes of the initial fluorescence intensity and the final fluorescence intensity are obtained.
The subject of data set [4] is recombined Escherichia coli carrying plasmids with different gene pathway. The experiment in a line: Genotoxicity of gaseous dimethyl sulfate with the in-situ multi-toxicity endpoint detection system for VOCs (Embodiment 1). To be noted: exposure 20-500 mg/m^3, 15 min, 0.5 L/min.
Method: Embodiment 1: Genotoxicity of an artificial gaseous pollutant (dimethyl sulfate) is detected by using the in-situ multi-toxicity endpoint detection system for volatile organic compounds (VOCs) constructed in the present application. Specific steps are as follows:
In this embodiment, a Tenax TA multi-well polymer adsorbent is selected as the adsorption material to be filled in an adsorber of the atmospheric pre-concentrator, and a mixed liquid of 50% of ethanol and 50% of pure water is added to the gas-washing bottle and the high-temperature steam generator.
(2) According to a detection requirement in this embodiment, the quantity of the multi-well exposure tray that need to be loaded is 6, 29 types of hydrogel microspheres fixed with recombined Escherichia coli carrying plasmids with different gene pathway are provided, and the quantity of each type of hydrogel microspheres fixed with microorganisms that need to be used is 15. An initial fluorescence intensity of each hydrogel microsphere is detected and recorded, and the hydrogel microspheres are placed in the multi-well exposure tray, the multi-well exposure tray is loaded into the exposure device, and the detection system is sealed. […]
Where [5] appears, read: 0.25 h, gaseous exposure, 15 min, 0.5 L/min, read-out: IC50 (15 min) Gaseous.
Where [6] appears, read: 0.5 h, gaseous exposure, 30 min, 0.5 L/min, read-out: IC50 (30 min) Gaseous.
Setting [7] is: 0.75 h, gaseous exposure, 45 min, 0.5 L/min, read-out: IC50 (45 min) Gaseous.
Setting [8] is: 1 h, gaseous exposure, 60 min, 0.5 L/min, read-out: IC50 (60 min) Gaseous.
Where [9] appears, read: 0.25 h, 15 min, read-out: IC50 (15 min) Liquid.
The mark [10] stands for this setting: 0.5 h, 30 min, read-out: IC50 (30 min) Liquid.
Where [11] appears, read: 0.75 h, 45 min, read-out: IC50 (45 min) Liquid.
Setting [12] is: 1 h, 60 min, read-out: IC50 (60 min) Liquid.

This note sets out measurements from patent US20250115941A1, “Exposure device for exposing microorganisms to gaseous pollutants and detection system thereof” (priority 2023, published 2025).

In brackets after ≈: the same amount, converted by molar mass. Counter-ions that a name gives are not always drawn.

Turning to `Oc1ccccc1` [Phenol], the IC50 in the data set with Vibrio fischeri [1] (setting [5]) was determined as 0.0689 µg/mL (≈ 0.732 µM); with Vibrio fischeri [1] (setting [6]) it was 0.0363 µg/mL (≈ 0.386 µM); in the data set on Vibrio fischeri [1] (setting [7]) it was 0.028 µg/mL (≈ 0.298 µM); in the data set on Vibrio fischeri [1] (setting [8]) it was 0.0202 µg/mL (≈ 0.215 µM); with Vibrio fischeri [2] (setting [9]) it was 270 µg/mL (≈ 2870 µM); with Vibrio fischeri [2] (setting [10]), 290 µg/mL (≈ 3080 µM). The IC50 with Vibrio fischeri [2] (setting [11]) and with Vibrio fischeri [2] (setting [12]) was 320 µg/mL (≈ 3400 µM) in each case. In addition, the minimum detection limit in the data set on Vibrio fischeri [1] (gaseous exposure) is recorded as 20.31 mg/m^3. In addition, in the data set on Vibrio fischeri [1], the “IC50 (15 min) Ratio” value was 3921. Besides, the “IC50 (30 min) Ratio” value in the data set with Vibrio fischeri [1] amounted to 7991. Also, the “IC50 (45 min) Ratio” value in the data set with Vibrio fischeri [1] is on record as 11424. In addition, the “IC50 (60 min) Ratio” value in the data set with Vibrio fischeri [1] came out at 15818. Further, the “minimum detection limit at concentration ratio of 10 times” value in the data set with Vibrio fischeri [3] is 2.03 mg/m^3.

As to `COS(=O)(=O)OC` [dimethyl sulfate], in data set [4], the “gene pathways significantly upregulated (of 29 key gene pathways)” value was “Nine of these gene pathways are significantly upregulated”; the “genotoxicity / toxicity effects indicated” value is “may cause inhibition of cell division, oxidative stress, protein stress, and severe DNA damage, mutation, and recombination”.

As for `C=O` [Formaldehyde], the IC50 in the data set on Vibrio fischeri [1] (setting [5]) came out at 0.00481 µg/mL (≈ 0.16 µM); in the data set on Vibrio fischeri [1] (setting [6]), 0.00234 µg/mL (≈ 0.0779 µM); in the data set with Vibrio fischeri [1] (setting [7]), 0.00181 µg/mL (≈ 0.0603 µM); in the data set on Vibrio fischeri [1] (setting [8]), 0.00129 µg/mL (≈ 0.043 µM); in the data set on Vibrio fischeri [2] (setting [9]), 16.3 µg/mL (≈ 544 µM); in the data set with Vibrio fischeri [2] (setting [10]), 15.6 µg/mL (≈ 521 µM). Moreover, the values for the IC50 in the data set on Vibrio fischeri [2] (setting [11]) and in the data set on Vibrio fischeri [2] (setting [12]) were 15.4 µg/mL (≈ 514 µM) and 14.8 µg/mL (≈ 492 µM), respectively. Besides, the minimum detection limit in the data set with Vibrio fischeri [1] (gaseous exposure) was found to be 1.3 mg/m^3. Also, in the data set on Vibrio fischeri [1], the “IC50 (15 min) Ratio” value is on record as 3395. The “IC50 (30 min) Ratio” value with Vibrio fischeri [1] stood at 6684. Further, the “IC50 (45 min) Ratio” value in the data set with Vibrio fischeri [1] is on record as 8519. Moreover, in the data set with Vibrio fischeri [1], the “IC50 (60 min) Ratio” value came to 11457. Moreover, the “minimum detection limit at concentration ratio of 10 times” value in the data set on Vibrio fischeri [3] is on record as 0.13 mg/m^3.

Take `CC(=O)CC(C)=O` [Acetylacetone]: the IC50 worked out at 0.28 µg/mL (≈ 2.8 µM) in the data set on Vibrio fischeri [1] (setting [5]); 0.19 µg/mL (≈ 1.9 µM) in the data set on Vibrio fischeri [1] (setting [6]); 0.13 µg/mL (≈ 1.3 µM) in the data set with Vibrio fischeri [1] (setting [7]); 0.11 µg/mL (≈ 1.1 µM) in the data set on Vibrio fischeri [1] (setting [8]); 280 µg/mL (≈ 2800 µM) in the data set on Vibrio fischeri [2] (setting [9]); 250 µg/mL (≈ 2500 µM) with Vibrio fischeri [2] (setting [10]). Also, the IC50 in the data set on Vibrio fischeri [2] (setting [11]) was found to be 310 µg/mL (≈ 3100 µM); in the data set with Vibrio fischeri [2] (setting [12]) it was 250 µg/mL (≈ 2500 µM). In addition, the “IC50 (15 min) Ratio” value in the data set on Vibrio fischeri [1] stood at 1000. For the same compound, in the data set with Vibrio fischeri [1], the “IC50 (30 min) Ratio” value worked out at 1316. Besides, the “IC50 (45 min) Ratio” value with Vibrio fischeri [1] is recorded as 2385. In addition, the “IC50 (60 min) Ratio” value in the data set with Vibrio fischeri [1] worked out at 2273.

On to `CC=O` [Acetaldehyde], for which the IC50 in the data set with Vibrio fischeri [1] (setting [5]) is 2.12 µg/mL (≈ 48.1 µM); with Vibrio fischeri [1] (setting [6]), 1.29 µg/mL (≈ 29.3 µM); with Vibrio fischeri [1] (setting [7]) it was 0.83 µg/mL (≈ 18.8 µM); in the data set with Vibrio fischeri [1] (setting [8]), 0.49 µg/mL (≈ 11.1 µM); in the data set on Vibrio fischeri [2] (setting [9]) it was 640 µg/mL (≈ 14500 µM); with Vibrio fischeri [2] (setting [10]) it was 580 µg/mL (≈ 13200 µM). Besides, the IC50 in the data set with Vibrio fischeri [2] (setting [11]) came out at 580 µg/mL (≈ 13200 µM); in the data set on Vibrio fischeri [2] (setting [12]), 600 µg/mL (≈ 13600 µM). Moreover, in the data set on Vibrio fischeri [1], the “IC50 (15 min) Ratio” value turned out to be 302. The “IC50 (30 min) Ratio” value in the data set on Vibrio fischeri [1] is 450. In the data set with Vibrio fischeri [1], the “IC50 (45 min) Ratio” value is 699. Also, the “IC50 (60 min) Ratio” value in the data set on Vibrio fischeri [1] was determined as 1224.

`CCCCO` [N-butyl alcohol]: the “IC50 (15 min) Gaseous” value in the data set with Vibrio fischeri [1] (gaseous exposure, 15 min, 0.5 L/min) worked out at 1.05 µg/mL (≈ 14.2 µM). The “IC50 (30 min) Gaseous” value with Vibrio fischeri [1] (gaseous exposure, 30 min, 0.5 L/min) was determined as 0.73 µg/mL (≈ 9.85 µM). In addition, in the data set on Vibrio fischeri [1] (gaseous exposure, 45 min, 0.5 L/min), the “IC50 (45 min) Gaseous” value amounted to 0.53 µg/mL (≈ 7.15 µM). For the same compound, the “IC50 (60 min) Gaseous” value in the data set with Vibrio fischeri [1] (gaseous exposure, 60 min, 0.5 L/min) turned out to be 0.40 µg/mL (≈ 5.4 µM). Besides, in the data set on Vibrio fischeri [1], the “IC50 (15 min) Ratio” value was 1705, the “IC50 (30 min) Ratio” value is listed as 2521, the “IC50 (45 min) Ratio” value is recorded as 3472 and the “IC50 (60 min) Ratio” value was 4625. For the same compound, the “IC50 (15 min) Liquid” value with Vibrio fischeri [2] (15 min) is 1790 µg/mL (≈ 24100 µM). The “IC50 (30 min) Liquid” value in the data set with Vibrio fischeri [2] (30 min) was determined as 1840 µg/mL (≈ 24800 µM). The “IC50 (45 min) Liquid” value with Vibrio fischeri [2] (45 min) was determined as 1840 µg/mL (≈ 24800 µM). The “IC50 (60 min) Liquid” value in the data set with Vibrio fischeri [2] (60 min) was found to be 1850 µg/mL (≈ 25000 µM).

Take `c1ccncc1` [Pyridine]: the half-inhibitory concentration (IC50) in the data set on Vibrio fischeri [1] (setting [5]) worked out at 1.5 µg/mL (≈ 19 µM); in the data set on Vibrio fischeri [1] (setting [6]), 1.25 µg/mL (≈ 15.8 µM); in the data set on Vibrio fischeri [1] (setting [7]), 0.88 µg/mL (≈ 11.1 µM); in the data set on Vibrio fischeri [1] (setting [8]) it was 0.5 µg/mL (≈ 6.32 µM); in the data set with Vibrio fischeri [2] (setting [9]), 1020 µg/mL (≈ 12900 µM); with Vibrio fischeri [2] (setting [10]), 1080 µg/mL (≈ 13700 µM). In addition, the IC50 with Vibrio fischeri [2] (setting [11]) stood at 1140 µg/mL (≈ 14400 µM); with Vibrio fischeri [2] (setting [12]), 1250 µg/mL (≈ 15800 µM). For the same compound, in the data set on Vibrio fischeri [1], the “IC50 (15 min) Ratio” value amounted to 680. Also, in the data set on Vibrio fischeri [1], the “IC50 (30 min) Ratio” value is 864. Further, the “IC50 (45 min) Ratio” value with Vibrio fischeri [1] worked out at 1295. In the data set on Vibrio fischeri [1], the “IC50 (60 min) Ratio” value is given as 2500.

As usually defined, the IC50 is the concentration that gives 50% inhibition.
